Data published in BindingDB's records for doi:10.1073/pnas.0511292103 (Genomics Institute of The Novartis Research Foundation, 2006).

Molecular target: T1, Ret proto-oncogene (Homo sapiens, UniProt Q9UE13)
T1 sequence (Q9UE13 whole entry): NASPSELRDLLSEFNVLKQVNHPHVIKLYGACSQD

| Compound | Ki |
| --- | --- |
| Cc1ccc(NC(=O)c2ccc(CN3CCN(C)CC3)cc2)cc1Nc1nccc(-c2cccnc2)n1 | > 10 µM |
| Cc1cn(-c2cc(NC(=O)c3ccc(C)c(Nc4nccc(-c5cccnc5)n4)c3)cc(C(F)(F)F)c2)cn1 [AMN 107] | 8.68 µM |
